In patent publication US20150094264A1, “USE OF OBESTATIN FOR MUSCLE REGENERATION” (UNIVERSIDADE DE SANTIAGO DE COMPOSTELA, priority 2012, published 2015):

Legend:
p38 = assay: Activation of p38 [pp38(Y138)] by obestatin in L6E9 myoblasts, immunoblot; assay type: cell-based, rat
Method: FIG. 1. Activation of regulatory enzymes of mitogenesis and myogenesis by obestatin in L6E9 myoblasts and myotubes. Effect of obestatin on activity of regulatory enzymes of the mitogenic capacity (ERK 1/2), metabolic capacity (Akt and AMPK) and myogenic capacity (Akt and p38). Based on a dose-response study, the saturating dose for the maximum enzymatic activation is established for a concentration of 5 nM. […] Inactivation of AMPK is described in both cell models. The activation profile discovers bimodal characteristics for the action of obestatin: 1.—mitogenic activation in myoblasts; and, 2.—myogenic activation. The immunoblots are representative of 6 independent assays.
The studies were performed based on the use of L6E9 rat myoblasts which were maintained in growth medium (GM) formed by DMEM (Dulbecco's Modified Eagle Medium) supplemented with 10% fetal bovine serum (FBS), 100 U/mL penicillin, and 100 U/mL streptomycin. For the differentiation, the cells were cultured at 80-100% of confluence in GM and it was replaced for differentiation medium (DM) formed by DMEM supplemented with 2% FBS, 100 U/mL penicillin, and 100 U/mL streptomycin during 6 days.
(§1) The tissue or cell samples were directly lysed in RIPA buffer [Tris-HCl (pH 7.2), 50 mM; NaCl, 150 mM; EDTA, 1 mM; NP-40, 1% (v/v); Sodium deoxycholate, 0.25% (w/v); protease inhibitors (Sigma); phosphatise inhibitors (Sigma)]. The lysates were clarified by centrifugation (14,000×g during 15 min at 4° C.) and the protein concentration was quantified using QuantiPro™ BCA assay kit (Sigma). For immunoblot, equal amounts of protein were loaded which were fractionated in SOS-PAGE gels and transferred to nitrocellulose membranes. The immunoreactive bands were detected by chemiluminescence (Pierce ECL Western Blotting Substrate; Thermo Scientific, Ill., USA).
To define the mitogenic and myogenic effect of obestatin, the activation capacity was studied of intracellular targets regulating proliferation (ERK1/2) and/or differentiation (p38 and Akt). […]

L6E9 myoblasts = assay: Cicatrization capacity (migration/invasion) in L6E9 myoblasts; assay type: cell-based, rat; settings: obestatin 5 nM
Method: FIG. 6. Evaluation of the cicatrization capacity (migration/invasion) of obestatin in L6E9 myoblasts. A: the L6E9 myoblasts grew to 100% of confluence in GM and later the damage was induced with a sterile pipette. The cells were maintained in GM or GM-obestatin (5 nM) during 8 and 24 hours after the induction of cell damage (40× magnification). B: quantification of the % of cicatrization (mean±standard error; *, p<0.05).
The L6E9 cells were cultured until reaching a confluence of 100% in GM. Having reached said confluence, the damage was produced by the use of a sterile pipette point which made it possible to perform two linear and perpendicular channels. After the damage, the cells were washed and cultured with GM or GM+obestatin (5 nM). The progress of the migration was immediately photographed after the damage and at 8 and 24 hours, close to the crossing point. The “invaded” area was calculated by tracing the “cicatrization” edge and using ImageJ64 software. The percentage of cicatrization was calculated based on the following equation:% cicatrization=[(area 0 h−area xh)/area 0 h]×100.

[1] = test system: damaged tibialis anterior of mouse; assay: Local administration in damaged tibialis anterior of mouse: myogenic markers, immunoblot; assay type: in vivo, Swiss mice; settings: 300 nmol/kg weight local, 24 h intervals
Method: FIG. 8. Effect of the exogenous administration of obestatin in the damaged tibialis anterior of mouse (animal model) on the myogenic markers PAX-7 (A), MyoD (B), myogenin (C) and eMHC (D). Effect of the local exogenous administration of obestatin (300 nmol/kg/24 h) on early and later markers of myogenesis in damaged skeletal muscle tissue (tibialis anterior) in mice. The protein levels are expressed as % of the control obtained from the group of animals with administration of PBS (n=10 per group; mean±standard error; *, #, p<0.005).
as §1
The mice (30 g; n=50) were maintained in 12 h light-darkness cycled with free access to standard diet and water. To induce the muscle damage, the tibialis anterior muscle (TA) was extracted under anaesthesia and subjected to three cycles of damage due to cold contact applying along the length of the muscle a metal bar cooled in liquid nitrogen. The damaged muscles were treated locally with obestatin injection (300 nmol/kg weight) or the corresponding vehicle (PBS; control) during the times indicated in 24 h intervals. The animals were assigned to one of the five experimental groups (n=10/group): 1) control group (saline); 2) obestatin group 48 h (obestatin 300 nmol/kg weight/24 h); 3) obestatin group 96 h (obestatin 300 nmol/kg weight/24 h); 4) obestatin group 168 h (obestatin 300 nmol/kg weight/24 h); and, obestatin group 240 h (obestatin 300 nmol/kg weight/24 h). After the indicated times, the mice were sacrificed by cervical dislocation under anaesthetic treatment and the tissues were extracted for immunoblot and immunohistochemical analyses.
The estimate of the therapeutic potential of obestatin as muscle regenerator agent was assessed in Swiss mice wherein muscle damage was induced in the tibialis anterior and obestatin (300 nmol/kg weight) or the corresponding vehicle (PBS) was later locally administered. The muscles were extracted and analysed by immunoblot 48, 96, 168 and 240 h after the treatment (n=5 per study time).

[2] = test system: damaged tibialis anterior of mouse; assay: Histological (hematoxylin/eosin) analysis of muscle regeneration in damaged tibialis anterior of mouse; assay type: in vivo, Swiss mice; settings: 300 nmol/kg weight local
Method: FIG. 9. Immunohistochemical analysis of the effect of the exogenous administration of obestatin on the capacity for muscle regeneration in the damaged tibialis anterior of mouse (animal model). The images shown are representative of the sections of the damaged tibialis anterior muscle (hematoxylin/eosin staining) under the local exogenous administration of obestatin (300 nmol/kg/24 h) or PBS (control) 48, 96, 168 and 240 h after inducing the damage. The images show the area of damage and regeneration at the indicated times.
FIG. 10. Quantitative analysis of the areas of the regenerative fibres of the tibialis anterior 96 and 168 hours after inducing the damage and exogenous administration of obestatin or PBS (control). The analysis corresponds to the area of regeneration myofibers in the tibialis anterior. For this purpose, an immunohistochemical analysis was performed by staining with hematoxylin/eosin and later quantification of the area of the myofiber by the use of the ImageJ64 program (n=10 per group; mean±standard error; *, p<0.005).
The muscle samples were mounted in a cold freezing medium [Tragacanth; Santa Cruz Biotechnology (CA, USA)] and frozen in a mixture of nitrogen-isopentane. The tissue sections were obtained by serial cuts with a cryostat (10 μm) and were mounted in adhesion slides for histochemistry (Marienfeld, Lauda-Konigshofen, Germany). The sections fixed were stained with hematoxylin/eosin. The quantification of the area of the regenerative myofibers was performed by using ImageJ64 analysis software.
The mice (30 g; n=50) were maintained in 12 h light-darkness cycled with free access to standard diet and water. To induce the muscle damage, the tibialis anterior muscle (TA) was extracted under anaesthesia and subjected to three cycles of damage due to cold contact applying along the length of the muscle a metal bar cooled in liquid nitrogen. The damaged muscles were treated locally with obestatin injection (300 nmol/kg weight) or the corresponding vehicle (PBS; control) during the times indicated in 24 h intervals. […]

obestatin
obestatin concentration at which activation of p38 [pp38(Y138)] was observed (p38): 0.1 nM | obestatin concentration at which pp38(Y138) phosphorylation levels reached saturable values (p38; dose-response): 5 nM | time post-stimulation of maximum pp38(Y138) levels (p38; obestatin 5 nM): 10 min | increase of migration index (cicatrization) in relation to control cells (L6E9 myoblasts; 8 hours after inducing cell damage): 53% | increase of migration index (cicatrization) in relation to control cells (L6E9 myoblasts; 24 hours after inducing cell damage): 21% | expression times of each of the factors analysed (Pax-7, MyoD, myogenin, eMHC) [1]: acceleration | MyoD levels in treated muscles in relation to control muscles ([1]; 48, 96, 168 and 240 h): significantly higher | Pax-7 levels in treated muscles in relation to control muscles ([1]; 48, 96, 168 and 240 h): significantly higher | eMHC levels in treated muscles in relation to control muscles ([1]; 48, 96, 168 and 240 h): significantly higher | myogenin levels in treated muscles in relation to control muscles ([1]; 48, 96, 168 and 240 h): significantly higher | regenerative process (restructuring of the myofibers in the area of damage) in relation to controls ([2]; 48, 96, 168 and 240 h): acceleration | area of the regenerative fibres in the tibialis anterior in relation to controls ([2]; 96 and 168 h after the treatment): significant increase | calibre of the regenerative myofibers in relation to controls ([2]; hematoxylin/eosin sections): significant increase
